Data: ChEMBL document CHEMBL1629679, “Extended-spectrum cephalosporinases in Pseudomonas aeruginosa” (2009)

How the values were obtained:
[1] = test system: Pseudomonas aeruginosa; test: Activity at Pseudomonas aeruginosa PDC-3 by spectrophotometer
[2] = test system: Pseudomonas aeruginosa; test: Ratio of Kcat to Km for Pseudomonas aeruginosa PDC-2 by spectrophotometer
[3] = test system: Pseudomonas aeruginosa; test: Activity at Pseudomonas aeruginosa PDC-2 by spectrophotometer
[4] = test system: Pseudomonas aeruginosa; test: Ratio of Kcat to Km for Pseudomonas aeruginosa PDC-3 by spectrophotometer

Row | SMILES | Km [1] [µM] | kcat [1] [s⁻¹] | kcat/Km [2] [M⁻¹ s⁻¹] | Km [3] [µM] | kcat [3] [s⁻¹] | kcat/Km [4] [M⁻¹ s⁻¹]
1 | CC(C)(O/N=C(\C(=O)N[C@@H]1C(=O)N2C(C(=O)[O-])=C(C[n+]3ccccc3)CS[C@H]12)c1csc(N)n1)C(=O)O | 35 | 0.02 | 500 | 20 | 0.01 | 600
2 | CC1(C)S[C@@H]2[C@H](NC(=O)Cc3ccccc3)C(=O)N2[C@H]1C(=O)O | 30 | 35 | 1.2e+06 | 30 | 35 | 1.2e+06
3 | C[C@@H](O)[C@H]1C(=O)N2C(C(=O)O)=C(SCCNC=N)C[C@H]12 | 20 | 0.1 | 5000 | 35 | 0.2 | 5000
4 | CO/N=C(\C(=O)N[C@@H]1C(=O)N2C(C(=O)O)=C(COC(C)=O)CS[C@H]12)c1csc(N)n1 | 8 | 0.15 | 30000 | 5 | 5 | 20000
5 | CO/N=C(\C(=O)N[C@@H]1C(=O)N2C(C(=O)[O-])=C(C[N+]3(C)CCCC3)CS[C@H]12)c1csc(N)n1 | 1300 | 2 | 2000 | 850 | 2 | 1500
6 | CCN1CCN(C(=O)N[C@@H](C(=O)N[C@@H]2C(=O)N3[C@@H]2SC(C)(C)[C@@H]3C(=O)O)c2ccccc2)C(=O)C1=O | 40 | 5 | 135000 | 40 | 5.5 | 125000
